{"source": "patent US20250186442A1", "about": "“Obicetrapib and Ezetimibe Combination Treatment and Fixed Dose Pharmaceutical Compositions” (NewAmsterdam Pharma B.V., priority 2022, published 2025)", "key": {"Lp(a)": {"tested_on": "Lp(a)", "assay": "ROSE2 phase 2b clinical trial - Lp(a)", "format": "in vivo, human", "conditions": "mITT Population; obicetrapib 10 mg, ezetimibe 10 mg", "procedure": "(§1) The exploratory objectives of this study include the following: • To evaluate the effect of obicetrapib 10 mg+ezetimibe 10 mg combination therapy and obicetrapib 10 mg monotherapy, when used as an adjunct to high-intensity statin therapy, on non-high-density lipoprotein cholesterol (non-HDL-C), very low-density lipoprotein cholesterol (VLDL-C), HDL-C, TG, ApoE, Lp(a), and HDL-ApoE at Day 84; • To evaluate the effect of obicetrapib 10 mg+ezetimibe 10 mg combination therapy and obicetrapib 10 mg monotherapy, when used as an adjunct to high-intensity statin therapy, on the proportion of participants achieving predefined LDL-C targets at Day 84; • To assess the mean trough plasma levels of obicetrapib 10 mg+ezetimibe 10 mg combination therapy and obicetrapib 10 mg monotherapy at steady state on Days 28, 84, and 112; and • To evaluate the safety and tolerability profiles of obicetrapib 10 mg+ezetimibe 10 mg combination therapy and obicetrapib 10 mg monotherapy, when used as an adjunct to high-intensity statin therapy, assessed by clinical laboratory values and incidence of AEs.\nThis study will be a placebo-controlled, double-blind, randomized, Phase 2 study to evaluate the efficacy, safety, and tolerability of obicetrapib 10 mg, both in combination with ezetimibe 10 mg and as monotherapy, as an adjunct to high-intensity statin therapy. This study will take place at approximately 20 sites in the United States.\nUp to 2 weeks after the Screening Visit, participants will return to the site on Day 1 (Visit 2) and confirm study eligibility before being randomized and beginning treatment. Approximately 114 eligible participants (38 participants per treatment group) will be randomized in a 1:1:1 ratio to 1 of the following treatment groups: • Combination therapy: Obicetrapib 10 mg+ezetimibe 10 mg (administered as one 10 mg obicetrapib tablet and one 10 mg ezetimibe capsule); • Obicetrapib monotherapy: Obicetrapib 10 mg (administered as one 10 mg obicetrapib tablet and 1 placebo capsule); or • Placebo (administered as 1 placebo tablet and 1 placebo capsule).\nThe exploratory efficacy endpoints include the following: • Percent change from Day 1 to Day 84 in non-HDL-C, VLDL-C, HDL-C, TG, ApoE, Lp(a), and HDL-ApoE for the obicetrapib 10 mg+ezetimibe 10 mg combination treatment group compared with the placebo group and for the obicetrapib 10 mg monotherapy treatment group compared with the placebo group; and • Proportion of participants at Day 84 that achieve LDL-C<2.6 mmol/L (<100 mg/dL), LDL-C<1.8 mmol/L (<70 mg/dL), and LDL-C<1.3 mmol/L (<50 mg/dL) for the obicetrapib 10 mg+ezetimibe 10 mg combination treatment group compared with the placebo group and for the obicetrapib 10 mg monotherapy treatment group compared with the placebo group.\nBlood samples for the lipid profile must be obtained under fasting conditions (ie, after the participant has fasted for approximately 10 hours). For the purposes of this study, fasting will be defined as nothing by mouth except water and any essential medications. If a participant is not fasting, the Investigator should reschedule the visit as soon as possible. LDL-C level will be calculated using the Friedewald equation unless TG≥400 mg/dL or LDL-C≤50 mg/dL; in both cases, LDL-C level will be measured directly by preparative ultracentrifugation, also referred to as beta quantification. Additionally, LDL-C will be measured by preparative ultracentrifugation, also referred to as beta quantification, at baseline (Visit 2) and at the end of the 12-week Treatment Period (Visit 4) for all participants.\nThe Modified ITT (mITT) Population will include all participants in the ITT Population who receive at least 1 dose of any study drug and have a baseline value for the LDL-C assessment. […]"}, "P-glycoprotein": {"target": "T1, P-glycoprotein (Homo sapiens, UniProt P08183)", "T1 construct": "endogenous in cells; host or cells: study subjects in vivo (clinical study)", "T1 sequence (P08183 whole entry)": "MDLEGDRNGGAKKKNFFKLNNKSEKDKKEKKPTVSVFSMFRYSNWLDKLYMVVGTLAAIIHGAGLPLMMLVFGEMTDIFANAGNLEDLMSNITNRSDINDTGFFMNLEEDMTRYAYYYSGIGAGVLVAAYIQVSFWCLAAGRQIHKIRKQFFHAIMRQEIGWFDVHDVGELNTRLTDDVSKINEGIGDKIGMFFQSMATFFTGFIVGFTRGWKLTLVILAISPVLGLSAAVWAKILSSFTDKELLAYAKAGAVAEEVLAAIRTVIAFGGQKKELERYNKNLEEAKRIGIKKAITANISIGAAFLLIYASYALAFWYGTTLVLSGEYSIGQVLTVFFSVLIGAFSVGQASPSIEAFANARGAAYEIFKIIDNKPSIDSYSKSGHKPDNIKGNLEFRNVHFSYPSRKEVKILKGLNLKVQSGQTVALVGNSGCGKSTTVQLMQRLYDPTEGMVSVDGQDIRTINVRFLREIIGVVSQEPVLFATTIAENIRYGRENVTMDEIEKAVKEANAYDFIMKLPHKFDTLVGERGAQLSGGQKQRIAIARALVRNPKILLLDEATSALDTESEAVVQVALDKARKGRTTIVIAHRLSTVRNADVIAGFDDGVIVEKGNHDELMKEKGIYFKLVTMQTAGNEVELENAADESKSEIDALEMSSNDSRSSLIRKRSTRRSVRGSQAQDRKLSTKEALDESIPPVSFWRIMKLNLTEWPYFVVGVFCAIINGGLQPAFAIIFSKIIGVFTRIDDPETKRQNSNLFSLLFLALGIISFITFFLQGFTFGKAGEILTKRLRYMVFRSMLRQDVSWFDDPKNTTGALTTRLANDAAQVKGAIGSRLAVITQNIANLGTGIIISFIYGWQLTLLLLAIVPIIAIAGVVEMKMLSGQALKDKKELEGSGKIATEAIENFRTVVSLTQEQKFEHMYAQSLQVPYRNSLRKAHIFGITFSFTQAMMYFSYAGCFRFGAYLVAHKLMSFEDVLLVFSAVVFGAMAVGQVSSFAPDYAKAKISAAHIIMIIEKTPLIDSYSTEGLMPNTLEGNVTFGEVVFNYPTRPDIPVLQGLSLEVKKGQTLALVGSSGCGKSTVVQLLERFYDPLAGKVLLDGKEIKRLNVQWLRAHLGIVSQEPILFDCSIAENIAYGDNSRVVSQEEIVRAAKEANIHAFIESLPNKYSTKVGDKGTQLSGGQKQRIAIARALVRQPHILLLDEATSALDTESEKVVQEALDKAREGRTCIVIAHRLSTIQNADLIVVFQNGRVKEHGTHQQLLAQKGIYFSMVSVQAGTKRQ", "conditions": "TA-8995-05; cited from earlier work"}, "[1]": {"assay": "ROSE2 phase 2b clinical trial - safety and tolerability (adverse events)", "format": "in vivo, human", "conditions": "All Randomized Participants; obicetrapib 10 mg (N = 39), obicetrapib 10 mg + ezetimibe 10 mg (N = 40)", "procedure": "as §1\nThe safety and tolerability profile of obicetrapib 10 mg, both in combination with ezetimibe 10 mg and as monotherapy, will be assessed by clinical laboratory assessments (chemistry and hematology), vital signs, physical examinations, and the incidence of AEs.\nAn AE can therefore be any unfavorable and/or unintended sign (including an abnormal laboratory finding), symptom, or disease temporally associated with the use of an investigational medicinal product, whether or not related to the investigational medicinal product. All AEs, including observed or volunteered problems, complaints, or symptoms, are to be recorded on the appropriate eCRF.\nAEs, which include clinical laboratory assessment variables, will be monitored and documented from the time of first dose of study treatment until completion of Visit 5. Participants should be instructed to report any AE that they experience to the Investigator, whether or not they think the event is due to study drug. Beginning at the date of the first dose of study treatment, Investigators should make an assessment for AEs at each visit and record the event on the appropriate AE eCRF.\nThe Investigator will assess the severity (intensity) of each AE as mild, moderate, or severe, and will also categorize each AE as to its potential relationship to study drug using the categories of yes or no.\n• Mild—An event that is easily tolerated and generally not interfering with normal daily activities. • Moderate—An event that is sufficiently discomforting to interfere with normal daily activities. • Severe—An event that is incapacitating with inability to work or perform normal daily activities.\nAn AE or adverse reaction is considered serious if, in the view of either the Investigator or Sponsor, it results in any of the following outcomes: • Death; • A life-threatening AE;\nThe Safety Population will include all participants who receive at least 1 dose of any study drug. Treatment classification will be based on the actual treatment received. The Safety Population will be the primary population used for the safety analyses."}}, "data": [{"compound": "CCOC(=O)N1c2ccc(C(F)(F)F)cc2[C@@H](N(Cc2cc(C(F)(F)F)cc(C(F)(F)F)c2)c2ncc(OCCCC(=O)O)cn2)C[C@H]1CC", "note": "[Obicetrapib, {4-[(2-{[3,5-bis(trifluoromethyl)benzyl][(2R,4S)-1-(ethoxycarbonyl)-2-ethyl-6-(trifluoromethyl)-1,2,3,4-tetrahydroquinolin-4-yl]amino}pyrimidin-5-yl)oxy]butanoic acid}]", "values": [{"measurement": "Lp(a) Change from Baseline to Day 84, Mean", "setting": "Lp(a)", "result": -19.71, "unit": "nmol/L"}, {"measurement": "Lp(a) Change from Baseline to Day 84, Median", "setting": "Lp(a)", "result": -4.50, "unit": "nmol/L"}, {"measurement": "Lp(a) Day 84, Mean", "setting": "Lp(a)", "result": 77.96, "unit": "nmol/L"}, {"measurement": "Lp(a) Day 84, Median", "setting": "Lp(a)", "result": 26.25, "unit": "nmol/L"}, {"measurement": "Lp(a) Percent Change from Baseline to Day 84 (%), Mean", "setting": "Lp(a)", "result": "−15.16", "unit": "%"}, {"measurement": "Lp(a) Percent Change from Baseline to Day 84 (%), Median", "setting": "Lp(a)", "result": "−11.95", "unit": "%"}, {"measurement": "effect on P-glycoprotein activity", "setting": "P-glycoprotein", "result": "no significant effect"}, {"measurement": "Primary reason for early study discontinuation: ADVERSE EVENT, (%)", "setting": "[1]", "result": "(2.6) %"}, {"measurement": "Primary reason for treatment discontinuation: ADVERSE EVENT, (%)", "setting": "[1]", "result": "(5.1) %"}]}]}
